The record followed here is patent US20220089661A1 (priority 2019, published 2022).

“And” between values parts separate entries of the source, which are not always exact repeats. Equal values may be shown once.

Common to all, as to format: cell-based
The subject of experiment [1] is Botrytis cinerea.
For experiment [2], the system named is Fusarium graminearum.
Experiment [3] has as its system Botrytis cinerea. This is another data set of the same source.
Experiment [4] relates to Fusarium graminearum. The source holds these as a separate data set.

One may read the IC50 as the concentration that inhibits the measured activity by half. For the substance “OeDef7 (RICESLSHRFKGPCVRRGNCAAVCQTEGFPGGLCRGFRRRCFCTKHC; listed as Olea europaea)”, the half-inhibitory concentration (IC50) is 2000 to 3000 nM and 3000 to 4000 nM with Botrytis cinerea [1]; 1000 to 1500 nM and 2000 to 3000 nM with Fusarium graminearum [2]. Besides, the MLC is 4 µM and 6 µM with Botrytis cinerea [3]; 3 µM and 6 µM with Fusarium graminearum [4].
